According to patent publication US20240390298A1, “CYCLOHEXYL BETA-HYDROXY ALKYL AMINES AND MEDICAL USES THEREOF” (ATROGI AB, priority 2021, published 2024):
Where a name gives a salt, the structure may show the parent alone.

Tests used:
L6-myotubes [1] = assay: Measurement of intracellular cAMP levels in differentiated L6 cells (alpha screen cAMP kit), compared to isoproterenol; format: cell-based; conditions: Rattus norvegicus, L6, 0.25 h, agonist 1×10^−5 M, 15 min, read-out: Biological example 2: intracellular cAMP levels, activity compared to that of isoproterenol
Description: (§1) L6-myoblasts were grown in Dulbecco's Modified Eagle's Medium (DMEM) containing 1 g/L glucose supplemented with 10% fetal bovine serum, 2 mM L-Glutamine, 50 U/mL penicillin, 50 μg/mL streptomycin and 10 mM HEPES. Cells were plated at 1×10^5 cells per mL in 24-well plates. After reaching 90% confluence the cells were grown in medium containing 2% FBS for 7 days where upon cells differentiated into myotubes.
Differentiated cells were serum-starved overnight and stimulated with an agonist, final concentration 1×10^−5 M, for 15 min in stimulation buffer (HBSS supplemented with 1% BSA, 5 mM HEPES and 1 mM IBMX, pH 7.4). The medium was aspirated and 100 μL of 95% EtOH was added to each well of the 24-well plate and cells were kept at −20° C. overnight. The EtOH was allowed to evaporate and 500 μL of lysis buffer (1% BSA, 5 mM HEPES and 0.3% Tween-20, pH 7.4) was added to each well. The plate was kept at −80° C. for 30 min and then at −20° C. until the day of detection when the samples were thawed. Intracellular cAMP levels were detected using an alpha screen cAMP kit (6760635D from Perkin Elmer). The activity for each compound is compared to that of isoproterenol.

L6-myotubes [2] = assay: Glucose uptake in differentiated L6-myotubes (3H-2-deoxyglucose), compared to isoproterenol; format: cell-based; conditions: agonist 1×10^−5 M, 50 nM 3H-2-deoxyglucose; for Emax at 10 µM: read-out: Biological example 1: glucose uptake, activity compared to that of isoproterenol
Description: as §1
Differentiated L6-myotubes were serum-starved overnight in medium containing 0.5% fatty-acid free BSA and stimulated with an agonist, with a final concentration of 1×10^−5 M. After 1 h 40 min the cells were washed with warm glucose free medium or PBS twice and another portion of agonist was added to the glucose free medium. After 20 min the cells were exposed to 50 nM ^3H-2-deoxyglucose for 10 min before washed with ice cold glucose free medium or PBS three times and lysed with 0.2 M NaOH, 400 μL/well, for 1 h at 60° C. The cell lysate was mixed with 4 mL scintillation buffer (Emulsifier Safe, Perkin Elmer) and the radioactivity was detected in a β-counter (Tri-Carb 4810TR, Perkin Elmer). The activity for each compound is compared to that of isoproterenol.

Structure (SMILES): CC(C)(C[C@H]1CC[C@H](O)CC1)NC[C@H](O)c1cccc(F)c1.Cl [Example 51, (1R,4r)-4-(2-(((R)-2-(3-Fluorophenyl)-2-hydroxyethyl)amino)-2-methylpropyl)cyclohexan-1-ol hydrochloride]
- Emax at 10 µM (L6-myotubes [1]): < 25%
- Biological example 1: glucose uptake, activity compared to that of isoproterenol (L6-myotubes [2]): + + +

Structure (SMILES): CO[C@H]1CC[C@H](CC(C)(C)NC[C@H](O)c2cncc(F)c2)CC1 [Example 16, (R)-1-(5-Fluoropyridin-3-yl)-2-((1-((1r,4R)-4-methoxycyclohexyl)-2-methyl-propan-2-yl)amino)ethan-1-ol]
- Emax at 10 µM (L6-myotubes [1]): < 25%
- Biological example 1: glucose uptake, activity compared to that of isoproterenol (L6-myotubes [2]): + +

Structure (SMILES): CC(C)(CC[C@H]1CC[C@@H](O)CC1)NC[C@H](O)c1cccc(F)c1 [Example 64, (1R,4s)-4-(3-(((R)-2-(3-Fluorophenyl)-2-hydroxyethyl)amino)-3-methyl-butyl)cyclohexan-1-ol]
- Emax at 10 µM (L6-myotubes [1]): < 25%
- Biological example 1: glucose uptake, activity compared to that of isoproterenol (L6-myotubes [2]): + + +

Structure (SMILES): CC(C)(NC[C@H](O)c1cccc(F)c1)[C@H]1CC[C@H](OCc2ccccc2)CC1 [Example 37, (R)-2-((2-((1r,4R)-4-(Benzyloxy)cyclohexyl)propan-2-yl)amino)-1-(3-fluoro-phenyl)ethan-1-ol]
- Emax at 10 µM (L6-myotubes [1]): < 25%
- Biological example 1: glucose uptake, activity compared to that of isoproterenol (L6-myotubes [2]): + +

Structure (SMILES): CC(C)(C[C@H]1CC[C@@H](NC(=O)C(C)(C)C)CC1)NC[C@H](O)c1cccc(F)c1 [Example 165, N-((1S,4s)-4-(2-(((R)-2-(3-Fluorophenyl)-2-hydroxyethyl)amino)-2-methylpropyl)cyclohexyl)pivalamide hydrochloride]
- Emax at 10 µM (L6-myotubes [1]): < 25%
- Biological example 1: glucose uptake, activity compared to that of isoproterenol (L6-myotubes [2]): + + +

Structure (SMILES): CC(C)(C[C@H]1CC[C@@H](N)CC1)NC[C@@H](O)c1cccc(C#N)n1 [Example 131, 6-((R)-2-((1-((1s,4S)-4-Aminocyclohexyl)-2-methylpropan-2-yl)amino)-1-hydroxyethyl)picolinonitrile trihydrochloride]
- Emax at 10 µM (L6-myotubes [1]): < 25%
- Biological example 1: glucose uptake, activity compared to that of isoproterenol (L6-myotubes [2]): + +

Structure (SMILES): CC(C)(C[C@H]1CC[C@H](N)CC1)NC[C@@H](O)c1cccc(C#N)n1 [Example 130, 6-((R)-2-((1-((1r,4R)-4-Aminocyclohexyl)-2-methylpropan-2-yl)amino)-1-hydroxyethyl)picolinonitrile trihydrochloride]
- Emax at 10 µM (L6-myotubes [1]): < 25%
- Biological example 1: glucose uptake, activity compared to that of isoproterenol (L6-myotubes [2]): + +

Structure (SMILES): O[C@@H](CNC[C@H]1CC[C@H](O)CC1)c1cccc(F)c1 [Example 30, (1R,4r)-4-((((R)-2-(3-Fluorophenyl)-2-hydroxyethyl)amino)methyl)-cyclohexan-1-ol]
- Emax at 10 µM (L6-myotubes [1]): < 25%
- Emax at 10 µM (L6-myotubes [2]): 25 to 50%

Structure (SMILES): CO[C@H]1CC[C@@H](CC(C)(C)NC[C@H](O)c2cncc(F)c2)CC1 [Example 14, (R)-1-(5-Fluoropyridin-3-yl)-2-((1-((1s,4S)-4-methoxycyclohexyl)-2-methylpropan-2-yl)amino)ethan-1-ol]
- Emax at 10 µM (L6-myotubes [1]): < 25%
- Biological example 1: glucose uptake, activity compared to that of isoproterenol (L6-myotubes [2]): + + +

Structure (SMILES): O[C@@H](CNC[C@H]1CC[C@@H](O)CC1)c1cccc(F)c1 [Example 26, (1S,4s)-4-((((R)-2-(3-Fluorophenyl)-2-hydroxyethyl)amino)methyl)-cyclohexan-1-ol]
- Emax at 10 µM (L6-myotubes [1]): < 25%
- Emax at 10 µM (L6-myotubes [2]): 25 to 50%

Structure (SMILES): O[C@@H](CNCC[C@H]1CC[C@@H](O)CC1)c1cncc(F)c1 [Example 44, (1S,4s)-4-(2-(((R)-2-(5-Fluoropyridin-3-yl)-2-hydroxyethyl)amino)-ethyl)cyclohexan-1-ol]
- Emax at 10 µM (L6-myotubes [1]): < 25%
- Emax at 10 µM (L6-myotubes [2]): 25 to 50%

Structure (SMILES): O[C@@H](CNCC[C@H]1CC[C@@H](OCc2ccccc2)CC1)c1cccc(F)c1 [Example 41, (R)-2-((2-((1s,4S)-4-(Benzyloxy)cyclohexyl)ethyl)amino)-1-(3-fluoro-phenyl)ethan-1-ol]
- Emax at 10 µM (L6-myotubes [1]): < 25%
- Biological example 1: glucose uptake, activity compared to that of isoproterenol (L6-myotubes [2]): + +

Structure (SMILES): CC(C)(NC[C@H](O)c1cncc(F)c1)[C@H]1CC[C@@H](C(=O)O)CC1 [Example 97, (1S,4s)-4-(2-(((R)-2-(5-Fluoropyridin-3-yl)-2-hydroxyethyl)amino)propan-2-yl)cyclohexane-1-carboxylic acid]
- Emax at 10 µM (L6-myotubes [1]): 25 to 50%
- Emax at 10 µM (L6-myotubes [2]): 25 to 50%

Structure (SMILES): CO[C@H]1CC[C@H](CNC[C@H](O)c2cccc(F)c2)CC1 [Example 3, (R)-1-(3-Fluorophenyl)-2-((((1r,4R)-4-methoxycyclohexyl)methyl)amino)-ethan-1-ol]
- Emax at 10 µM (L6-myotubes [1]): < 25%
- Biological example 1: glucose uptake, activity compared to that of isoproterenol (L6-myotubes [2]): + +

Structure (SMILES): O[C@@H](CNC[C@H]1CC[C@H](OCc2ccccc2)CC1)c1cncc(F)c1 [Example 31, (R)-2-((((1r,4R)-4-(Benzyloxy)cyclohexyl)methyl)amino)-1-(5-fluoropyridin-3-yl)ethan-1-ol]
- Emax at 10 µM (L6-myotubes [1]): < 25%
- Emax at 10 µM (L6-myotubes [2]): 25 to 50%

Structure (SMILES): CC(C)(C[C@H]1CC[C@@H](N)CC1)NC[C@H](O)c1cccc(C#N)n1 [Example 134, 6-((S)-2-((1-((1s,4R)-4-Aminocyclohexyl)-2-methylpropan-2-yl)amino)-1-hydroxyethyl)picolinonitrile trihydrochloride]
- Emax at 10 µM (L6-myotubes [1]): < 25%
- Biological example 1: glucose uptake, activity compared to that of isoproterenol (L6-myotubes [2]): + +

Structure (SMILES): CC(C)(C[C@H]1CC[C@@H](NS(C)(=O)=O)CC1)NC[C@H](O)c1cccc(F)c1 [Example 170, N-((1S,4s)-4-(2-(((R)-2-(3-Fluorophenyl)-2-hydroxyethyl)amino)-2-methylpropyl)cyclohexyl)methanesulfonamide hydrochloride]
- Emax at 10 µM (L6-myotubes [1]): < 25%
- Biological example 1: glucose uptake, activity compared to that of isoproterenol (L6-myotubes [2]): + + +

Structure (SMILES): O[C@@H](CNCCC[C@H]1CC[C@@H](O)CC1)c1cncc(F)c1 [Example 60, (1R,4s)-4-(3-(((R)-2-(5-Fluoropyridin-3-yl)-2-hydroxyethyl)amino)propyl)-cyclohexan-1-ol]
- Emax at 10 µM (L6-myotubes [1]): < 25%
- Biological example 1: glucose uptake, activity compared to that of isoproterenol (L6-myotubes [2]): + +

Structure (SMILES): O[C@@H](CNCCC[C@H]1CC[C@@H](OCc2ccccc2)CC1)c1cccc(F)c1 [Example 55, (R)-2-((3-((1s,4R)-4-(Benzyloxy)cyclohexyl)propyl)amino)-1-(3-fluoro-phenyl)ethan-1-ol]
- Emax at 10 µM (L6-myotubes [1]): < 25%
- Emax at 10 µM (L6-myotubes [2]): 25 to 50%

Structure (SMILES): CC(C)(C[C@H]1CC[C@@H](S(N)(=O)=O)CC1)NC[C@H](O)c1cccc(F)c1.Cl [Example 196, (1S,4s)-4-(2-(((R)-2-(3-Fluorophenyl)-2-hydroxyethyl)amino)-2-methylpropyl)cyclohexane-1-sulfonamide hydrochloride]
- Emax at 10 µM (L6-myotubes [1]): < 25%
- Biological example 1: glucose uptake, activity compared to that of isoproterenol (L6-myotubes [2]): + + +

Structure (SMILES): COC(=O)[C@H]1CC[C@@H](C(C)(C)NC[C@H](O)c2cccc(F)c2)CC1 [Example 95, Methyl (1S,4s)-4-(2-(((R)-2-(3-Fluorophenyl)-2-hydroxyethyl)amino)-propan-2-yl)cyclohexane-1-carboxylate]
- Biological example 1: glucose uptake, activity compared to that of isoproterenol (L6-myotubes [2]): + + +

Structure (SMILES): COC(=O)[C@H]1CC[C@@H](C(C)(C)NC[C@H](O)c2cncc(F)c2)CC1 [Example 96, Methyl (1S,4s)-4-(2-(((R)-2-(5-Fluoropyridin-3-yl)-2-hydroxyethyl)amino)-propan-2-yl)cyclohexane-1-carboxylate]
- Biological example 1: glucose uptake, activity compared to that of isoproterenol (L6-myotubes [2]): + +
